From patent publication US20240059691A1 (KALVISTA PHARMACEUTICALS LIMITED, priority 2020, published 2024)

Target: Human Factor XIIa (Homo sapiens (Human), UniProt P00748)
Test: Determination of FXIIa inhibition (fluorogenic substrate H-DPro-Phe-Arg-AFC, IC50 assay)
Format: biochemical
Conditions: substrate H-DPro-Phe-Arg-AFC at Km, 25° C.; class scale A-G
Method in brief: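 Human FXIIa incubated at 25° C with fluorogenic substrate H-DPro-Phe-Arg-AFC at its Km concentration and varying compound concentrations. Fluorescence release monitored over 5 min at 25° C; linear rate expressed as % of uninhibited activity to derive IC50.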

Human Factor XIIa, sequence (P00748 373-615): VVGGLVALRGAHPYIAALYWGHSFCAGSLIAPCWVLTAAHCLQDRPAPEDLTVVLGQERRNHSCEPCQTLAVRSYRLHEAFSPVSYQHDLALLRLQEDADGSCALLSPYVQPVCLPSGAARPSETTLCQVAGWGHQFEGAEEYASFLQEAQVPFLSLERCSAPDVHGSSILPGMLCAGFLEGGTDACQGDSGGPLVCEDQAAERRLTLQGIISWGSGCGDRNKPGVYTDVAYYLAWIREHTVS

Row | IC50 | Structure (SMILES)
1 | 10000 to 40000 nM | Nc1nccc2cc(NCc3ccnc(N4CCn5c(nnc5C(F)(F)F)C4)c3)ccc12 [Example 4471, N6-((2-(3-(trifluoromethyl)-5,6-dihydro-[1,2,4]triazolo[4,3-a]pyrazin-7(8H)-yl)pyridin-4-yl)methyl)isoquinoline-1,6-diamine]
2 | 1000 to 3000 nM | Nc1nccc2c(NCc3ccnc(N4CCn5c(nnc5C(F)(F)F)C4)c3)cccc12 [Example 4472, N5-((2-(3-(trifluoromethyl)-5,6-dihydro-[1,2,4]triazolo[4,3-a]pyrazin-7(8H)-yl)pyridin-4-yl)methyl)isoquinoline-1,5-diamine]
3 | 100 to 300 nM | Nc1nccc2c(NCc3cc(N4CCn5c(nnc5C(F)(F)F)C4)cs3)cccc12 [Example 8459, N5-((4-(3-(Trifluoromethyl)-5,6-dihydro-[1,2,4]triazolo[4,3-a]pyrazin-7(8H)-yl)thiophen-2-yl)methyl)isoquinoline-1,5-diamine]
4 | 10 to 100 nM | Cc1cc(N2CCn3c(nnc3C(F)(F)F)C2C)cnc1CNc1cccc2c(N)nccc12 (centres unmarked) [Example 9007, N5-((3-methyl-5-(8-methyl-3-(trifluoromethyl)-5,6-dihydro-[1,2,4]triazolo[4,3-a]pyrazin-7(8H)-yl)pyridin-2-yl)methyl)isoquinoline-1,5-diamine]
5 | 10 to 100 nM | CC1c2nnc(C(F)(F)F)n2CCN1c1cnc(CNc2cccc3c(N)nccc23)c(F)c1 (centres unmarked) [Example 9008, N5-((3-fluoro-5-(8-methyl-3-(trifluoromethyl)-5,6-dihydro-[1,2,4]triazolo[4,3-a]pyrazin-7(8H)-yl)pyridin-2-yl)methyl)isoquinoline-1,5-diamine]

Target: Plasma Kallikrein (Homo sapiens (Human), UniProt P03952)
Test: Determination of related protease inhibition: Plasma Kallikrein (fluorogenic substrate at Km)
Format: biochemical
Conditions: 25° C., read-out: IC50 (human PKal)
Experimental: Determination of Related Protease Inhibition
In vitro inhibition of related proteases was determined using an ([…] assay based on standard literature methods (see e.g. Shori et al., Biochem. Pharmacol., 1992, 43, 1209; Bouckaert et al., European Journal of Medicinal Chemistry 110 (2016) 181). Human serine protease enzymes Plasma Kallikrein, KLK1, FXa, Plasmin, Thrombin and Trypsin were assayed for enzymatic activity using an appropriate fluorogenic substrate at Km concentration, FXIa at fixed substrate concentration of 100 μM, and various concentrations of the test compound. Protease activity was measured by monitoring the accumulation of liberated fluorescence from the substrate over […]. The linear rate of fluorescence increase per minute was expressed as percentage (%) activity. IC50 values were calculated as the concentration of inhibitor giving 50% inhibition of the uninhibited enzyme activity (100%).

Plasma Kallikrein, sequence (P03952 391-638): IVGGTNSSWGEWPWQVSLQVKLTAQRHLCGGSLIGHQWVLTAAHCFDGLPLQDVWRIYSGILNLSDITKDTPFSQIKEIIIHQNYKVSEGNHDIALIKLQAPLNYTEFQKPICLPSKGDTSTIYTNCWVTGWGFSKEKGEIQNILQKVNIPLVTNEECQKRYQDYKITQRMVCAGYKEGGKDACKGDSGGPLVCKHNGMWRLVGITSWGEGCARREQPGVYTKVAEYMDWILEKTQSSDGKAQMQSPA
Plasma Kallikrein, sequence (P03952 20-390 partner): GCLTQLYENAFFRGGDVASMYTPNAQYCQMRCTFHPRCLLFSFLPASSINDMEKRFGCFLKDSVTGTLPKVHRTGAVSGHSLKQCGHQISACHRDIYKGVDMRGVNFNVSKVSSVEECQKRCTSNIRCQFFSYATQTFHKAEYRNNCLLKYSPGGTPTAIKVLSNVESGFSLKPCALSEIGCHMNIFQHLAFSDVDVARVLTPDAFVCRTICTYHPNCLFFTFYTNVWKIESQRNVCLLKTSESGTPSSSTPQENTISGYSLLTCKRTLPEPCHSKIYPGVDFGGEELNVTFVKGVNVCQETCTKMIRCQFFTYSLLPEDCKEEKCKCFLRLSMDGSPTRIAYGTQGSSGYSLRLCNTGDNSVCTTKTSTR

Row | IC50 | Structure (SMILES)
6 | > 100 µM | CN1CCC(CNc2ccc(CNc3cnn(-c4cccc(Cl)c4)c3)cn2)CC1 [Example 1116, 5-(((1-(3-chlorophenyl)-1H-pyrazol-4-yl)amino)methyl)-N-((1-methylpiperidin-4-yl)methyl)pyridin-2-amine]
7 | > 40 µM | Nc1ncc(Cl)c2cc(NCc3ccc(N4CCn5nccc5C4)nc3)ccc12 [Example 1157, 4-chloro-N6-((6-(6,7-dihydropyrazolo[1,5-a]pyrazin-5(4H)-yl)pyridin-3-yl)methyl)isoquinoline-1,6-diamine]
8 | > 100 µM | COc1ccc2ncc(NCc3ccc(NCC4CCN(C)CC4)nc3)cc2c1 [Example 1177, 6-methoxy-N-((6-(((1-methylpiperidin-4-yl)methyl)amino)pyridin-3-yl)methyl)quinolin-3-amine]
9 | > 100 µM | COc1cccc2ccc(NCc3ccc(NCC4CCN(C)CC4)nc3)cc12 [Example 1178, 5-(((8-methoxynaphthalen-2-yl)amino)methyl)-N-((1-methylpiperidin-4-yl)methyl)pyridin-2-amine]
10 | > 100 µM | COc1ccc2cc(NCc3ccc(NCC4CCN(C)CC4)nc3)ccc2c1 [Example 1180, 5-(((6-methoxynaphthalen-2-yl)amino)methyl)-N-((1-methylpiperidin-4-yl)methyl)pyridin-2-amine]
11 | > 100 µM | CN1CCC(CNc2ccc(CNc3cnc4ccccc4c3)cn2)CC1 [Example 1183, N-((6-(((1-methylpiperidin-4-yl)methyl)amino)pyridin-3-yl)methyl)quinolin-3-amine]
12 | > 100 µM | CN1CCC(CNc2ccc(CNc3ccc(N(C)C)nn3)cn2)CC1 [Example 1186, N3,N3-dimethyl-N6-((6-(((1-methylpiperidin-4-yl)methyl)amino)pyridin-3-yl)methyl)pyridazine-3,6-diamine]
13 | > 100 µM | CN1CCC(CNc2ccc(CNc3cnc4cccnn34)cn2)CC1 [Example 1187, N-((6-(((1-methylpiperidin-4-yl)methyl)amino)pyridin-3-yl)methyl)imidazo[1,2-b]pyridazin-3-amine]
14 | > 100 µM | CN1CCC(CNc2ccc(CNc3cccn4ccnc34)cn2)CC1 [Example 1190, N-((6-(((1-methylpiperidin-4-yl)methyl)amino)pyridin-3-yl)methyl)imidazo[1,2-a]pyridin-8-amine]
